Results published in patent publication US10759803B2, “Asparagine endopeptidase (AEP) inhibitors for managing cancer and compositions related thereto” (priority 2014, dated 2020).

How the values were obtained:
Cathepsin-S = Cathepsin-S (Homo sapiens, UniProt P25774); assay: Specificity assay against Cathepsin-S; type: biochemical
Method: (§1) Purified recombinant enzyme was incubated with various concentrations of inhibitor in appropriate assay buffers in the presence of increasing concentrations of inhibitor. The formation of fluorescent product was monitored in duplicate reactions and the data was fit to appropriate equations to calculate the IC50 values.
(§2) To identify small-molecule inhibitors of AEP, a high-throughput screen was designed in conjunction with the Emory Chemical Biology Discovery Center. The screen incorporated mouse kidney lysates to assay a 54,384 compound library. […] Additional structural analysis and grouping allowed the compounds to be sorted into 8 distinct backbone families. […] The specificity of the compounds was also determined using four major cysteine proteases (FIG. 2).

CYP2C9 = CYP2C9 (Homo sapiens, UniProt P11712); assay: CYP inhibition screening, CYP2C9; type: in vitro ADME
Cathepsin-L = Cathepsin-L (Homo sapiens, UniProt P07711); assay: Specificity assay against Cathepsin-L; type: biochemical
CYP3A4 = CYP3A4 (Homo sapiens, UniProt P08684); assay: CYP inhibition screening, CYP3A4-Midazolam; type: in vitro ADME
Caspase-8 = Caspase-8 (Homo sapiens, UniProt Q14790); assay: Specificity assay against Caspase-8; type: biochemical
Method: as §1, §2

Caco-2 monolayer = Caco-2 monolayer permeability screen; details: Table 1
Method: To explore the in vitro ADME profiles of the compounds, additional tests were conducted.

CYP3A = assay: CYP inhibition screening, CYP3A-Testosterone; type: in vitro ADME
CYP2C19 = CYP2C19 (Homo sapiens, UniProt P33261); assay: CYP inhibition screening, CYP2C19; type: in vitro ADME
CYP1A2 = molecular target: T1, CYP1A2 (Homo sapiens, UniProt P05177); assay: CYP inhibition screening, CYP1A2; type: in vitro ADME
T1 sequence (P05177 1-516): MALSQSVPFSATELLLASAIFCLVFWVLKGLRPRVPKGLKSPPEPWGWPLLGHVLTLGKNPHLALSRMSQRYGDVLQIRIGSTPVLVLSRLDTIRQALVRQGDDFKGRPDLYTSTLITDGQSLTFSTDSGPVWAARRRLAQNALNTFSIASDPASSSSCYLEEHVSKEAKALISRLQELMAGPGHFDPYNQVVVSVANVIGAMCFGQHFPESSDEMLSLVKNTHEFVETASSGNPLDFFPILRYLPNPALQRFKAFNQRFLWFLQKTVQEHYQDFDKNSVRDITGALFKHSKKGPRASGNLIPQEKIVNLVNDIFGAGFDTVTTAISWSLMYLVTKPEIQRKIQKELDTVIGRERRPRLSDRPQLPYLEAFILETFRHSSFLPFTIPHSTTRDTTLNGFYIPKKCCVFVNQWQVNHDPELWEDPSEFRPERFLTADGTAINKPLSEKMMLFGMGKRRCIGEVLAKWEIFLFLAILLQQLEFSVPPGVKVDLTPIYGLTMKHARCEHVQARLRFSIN

CYP2D6 = CYP2D6 (Homo sapiens, UniProt P10635); assay: CYP inhibition screening, CYP2D6; type: in vitro ADME
[1] = tested on: amyloid precursor protein (APP) cleavage; assay: APP cleavage in OGD-treated primary cortical neurons; type: cell-based; details: 0.1 μM compound
Method: A. AEP activity, measured in primary neuronal cultures with 5 μM Cbz-Ala-Ala-Asn-AMC (x-axis denotes neurons were treated with 0.1 μM or 1.0 μM specified compound). B. Caspase activity, measured in primary neuronal cultures with 5 μM Ac-Asp-Glu-Val-Asp-AMC. C. Cathepsin activity, measured in primary neuronal cultures with 5 μM D-Val-Leu-Lys-AMC. D. Inhibition of APP cleavage. Lysates of primary cortical neurons pre-incubated with compounds for 30 min, underwent OGD for 4 hrs, were reperfused for 18 hrs (normoxia neurons remained at normoxic conditions). E. APP can be cleaved in a dose-dependent manner. Lysates of primary cortical neurons pre-incubated with compounds for 30 min, underwent OGD for 4 hrs, were reperfused for 18 hrs (normoxia neurons remained at normoxic conditions).
Depriving cells of oxygen and glucose is a cellular model that is employed to trigger acidosis in cultured cells. The efficacy of the compounds in a cellular model of oxygen-glucose deprivation (OGD) was determined in an effort to mimic the effects of stroke in primary cultured neurons. As a result of depriving neurons of oxygen and glucose-containing medium, AEP activity was doubled (FIG. 7A, ‘DMSO-Norm’ compared to ‘DMSO-OGD’), while Caspase-3 and Cathepsin activities remained relatively unchanged. […] Cleavage of APP is observed in response to only DMSO treatment (FIG. 7D, lane 2), and it appears that upon the treatment of 1 μM of compounds 10, 11, and 12, and just 0.1 μM of compound s31, 38 and 64, the cleavage was blocked, presumably due to AEP inhibition.

Caspase-3 = molecular target: T2, Caspase-3 (Homo sapiens, UniProt P42574); assay: Specificity assay against Caspase-3; type: biochemical
T2 sequence (P42574 29-175 limits assumed): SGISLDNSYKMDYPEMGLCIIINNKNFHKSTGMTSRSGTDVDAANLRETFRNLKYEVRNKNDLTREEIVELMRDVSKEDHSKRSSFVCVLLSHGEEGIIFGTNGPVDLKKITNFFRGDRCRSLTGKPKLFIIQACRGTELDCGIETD
T2 sequence (P42574 176-277 limits assumed): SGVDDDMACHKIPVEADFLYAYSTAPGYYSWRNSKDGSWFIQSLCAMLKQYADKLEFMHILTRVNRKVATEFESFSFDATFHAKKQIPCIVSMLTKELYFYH
Method: as §1, §2

AEP = molecular target: T3, AEP (Homo sapiens, UniProt Q99538); assay: IC50 assay with purified recombinant AEP; type: biochemical; details: purified active AEP; read-out: IC50 toward AEP
T3 construct: tested with purified active AEP, IC50 values for the top 8 candidates were found
T3 sequence (Q99538 18-323 limits assumed): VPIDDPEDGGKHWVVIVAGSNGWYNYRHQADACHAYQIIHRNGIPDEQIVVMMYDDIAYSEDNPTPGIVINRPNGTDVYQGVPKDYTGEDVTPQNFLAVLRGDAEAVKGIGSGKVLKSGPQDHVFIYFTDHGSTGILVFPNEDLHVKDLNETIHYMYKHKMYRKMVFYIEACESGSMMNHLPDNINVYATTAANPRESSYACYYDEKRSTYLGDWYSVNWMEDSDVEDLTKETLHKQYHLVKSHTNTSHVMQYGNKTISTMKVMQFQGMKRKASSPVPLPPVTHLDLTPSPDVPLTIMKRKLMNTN
Method: as §1, §2
Various concentrations of the appropriate compound were incubated with AEP reaction buffer (50 mM Sodium Citrate pH 5.5, 0.1% CHAPS, 60 mM Na2HPO4, 1 mM EDTA, final pH 6.0) and peptide substrate, 10 μM Cbz-Ala-Ala-Asn-AMC (Bachem). The reaction was initiated upon addition of 50 nM AEP and fluorescent product formation was monitored over 15 min. […] Data were analyzed with GraFit version 5.0.11 software package.

Sequence of CYP2D6 (P10635 whole entry): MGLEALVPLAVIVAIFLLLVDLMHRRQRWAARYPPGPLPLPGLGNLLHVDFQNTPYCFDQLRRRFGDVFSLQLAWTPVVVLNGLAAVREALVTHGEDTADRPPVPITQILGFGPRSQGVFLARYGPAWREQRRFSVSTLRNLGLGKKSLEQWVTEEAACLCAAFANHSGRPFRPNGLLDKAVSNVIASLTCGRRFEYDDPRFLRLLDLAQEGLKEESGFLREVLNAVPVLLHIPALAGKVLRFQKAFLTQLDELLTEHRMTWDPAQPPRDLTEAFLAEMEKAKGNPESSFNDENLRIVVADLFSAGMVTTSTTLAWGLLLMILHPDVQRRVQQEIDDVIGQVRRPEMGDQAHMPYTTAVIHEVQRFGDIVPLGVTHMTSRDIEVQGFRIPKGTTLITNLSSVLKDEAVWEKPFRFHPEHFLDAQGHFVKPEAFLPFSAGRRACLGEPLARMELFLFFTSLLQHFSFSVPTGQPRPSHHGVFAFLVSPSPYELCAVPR
Sequence of CYP2C19 (P33261 whole entry): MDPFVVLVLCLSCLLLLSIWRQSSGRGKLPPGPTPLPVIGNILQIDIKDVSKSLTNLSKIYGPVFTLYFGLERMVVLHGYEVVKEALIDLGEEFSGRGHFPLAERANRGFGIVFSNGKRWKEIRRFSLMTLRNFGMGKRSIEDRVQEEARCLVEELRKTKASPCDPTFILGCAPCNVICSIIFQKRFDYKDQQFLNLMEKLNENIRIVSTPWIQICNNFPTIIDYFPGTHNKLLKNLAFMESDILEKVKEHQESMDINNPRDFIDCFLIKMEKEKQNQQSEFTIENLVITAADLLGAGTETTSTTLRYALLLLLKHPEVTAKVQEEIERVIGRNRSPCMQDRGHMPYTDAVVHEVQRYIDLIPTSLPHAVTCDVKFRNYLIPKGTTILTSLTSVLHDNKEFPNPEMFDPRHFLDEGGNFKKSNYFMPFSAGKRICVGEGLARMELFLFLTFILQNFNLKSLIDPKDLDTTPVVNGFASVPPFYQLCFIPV
Sequence of CYP2C9 (P11712 whole entry): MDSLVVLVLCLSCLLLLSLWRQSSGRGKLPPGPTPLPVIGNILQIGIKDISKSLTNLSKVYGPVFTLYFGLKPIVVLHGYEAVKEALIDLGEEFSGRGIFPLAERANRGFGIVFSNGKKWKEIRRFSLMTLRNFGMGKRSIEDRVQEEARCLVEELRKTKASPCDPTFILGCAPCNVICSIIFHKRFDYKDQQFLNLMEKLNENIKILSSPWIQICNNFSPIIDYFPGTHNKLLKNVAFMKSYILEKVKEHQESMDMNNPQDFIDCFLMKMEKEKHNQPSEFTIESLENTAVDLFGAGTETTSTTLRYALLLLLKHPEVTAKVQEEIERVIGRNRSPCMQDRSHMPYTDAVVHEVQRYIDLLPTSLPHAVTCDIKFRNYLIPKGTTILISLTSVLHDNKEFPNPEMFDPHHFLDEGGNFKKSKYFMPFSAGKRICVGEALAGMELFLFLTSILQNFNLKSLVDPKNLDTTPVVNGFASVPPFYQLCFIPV
Sequence of CYP3A4 (P08684 whole entry): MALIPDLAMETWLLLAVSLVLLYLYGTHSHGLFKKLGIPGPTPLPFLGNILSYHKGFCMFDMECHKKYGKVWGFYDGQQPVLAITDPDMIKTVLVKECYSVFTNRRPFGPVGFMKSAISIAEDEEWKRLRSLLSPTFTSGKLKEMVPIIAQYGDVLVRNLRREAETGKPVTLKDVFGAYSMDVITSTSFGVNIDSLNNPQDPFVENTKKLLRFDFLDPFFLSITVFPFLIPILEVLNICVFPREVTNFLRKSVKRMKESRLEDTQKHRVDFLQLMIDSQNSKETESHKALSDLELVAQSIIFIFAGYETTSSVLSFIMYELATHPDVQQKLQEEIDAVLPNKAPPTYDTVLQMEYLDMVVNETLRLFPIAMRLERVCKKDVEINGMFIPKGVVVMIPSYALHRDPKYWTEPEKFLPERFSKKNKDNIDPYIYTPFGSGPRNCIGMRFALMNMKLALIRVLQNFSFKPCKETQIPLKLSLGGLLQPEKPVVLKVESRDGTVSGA
Sequence of Caspase-8 (Q14790 217-374 limits assumed, species assumed): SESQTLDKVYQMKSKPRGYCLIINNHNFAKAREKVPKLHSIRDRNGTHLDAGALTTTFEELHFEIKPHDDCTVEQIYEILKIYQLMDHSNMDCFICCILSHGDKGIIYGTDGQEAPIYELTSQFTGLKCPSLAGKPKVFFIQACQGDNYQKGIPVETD
Sequence of Caspase-8 (Q14790 385-479 limits assumed, species assumed): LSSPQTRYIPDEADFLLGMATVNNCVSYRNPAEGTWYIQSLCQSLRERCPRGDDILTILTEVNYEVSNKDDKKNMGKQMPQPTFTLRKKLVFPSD
Sequence of Cathepsin-S (P25774 115-331, species assumed): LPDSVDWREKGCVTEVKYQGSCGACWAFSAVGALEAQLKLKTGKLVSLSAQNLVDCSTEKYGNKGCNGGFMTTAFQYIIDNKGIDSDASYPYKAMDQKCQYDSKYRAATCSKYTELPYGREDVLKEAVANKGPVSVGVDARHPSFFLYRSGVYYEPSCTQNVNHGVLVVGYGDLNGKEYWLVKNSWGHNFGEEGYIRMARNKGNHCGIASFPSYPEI
Sequence of Cathepsin-L (P07711 114-333, species assumed): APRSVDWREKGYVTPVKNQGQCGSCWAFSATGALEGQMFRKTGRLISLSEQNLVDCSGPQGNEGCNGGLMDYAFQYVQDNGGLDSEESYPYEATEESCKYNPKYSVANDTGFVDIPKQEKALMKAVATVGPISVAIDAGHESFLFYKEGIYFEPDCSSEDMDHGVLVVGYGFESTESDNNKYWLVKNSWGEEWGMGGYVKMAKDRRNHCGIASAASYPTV

In the case of CCN(CC)c1ccc(CN2CCc3nc(C)[nH]c(=O)c3C2)c(OC)c1 [Compound 64], the “selectivity for AEP over Cathepsin-S” value (Cathepsin-S) is reported as “over 40 fold”, the CYP2C9 inhibition (CYP2C9; 3 μM) is reported as 4.6% and the CYP2C9 inhibition (CYP2C9; 10 μM) is reported as 7.9%. The “selectivity for AEP over Cathepsin-L” value (Cathepsin-L) was “over 40 fold”, the CYP3A4-Midazolam inhibition (CYP3A4; 3 μM) was 0.6% and the CYP3A4-Midazolam inhibition (CYP3A4; 10 μM) was 10.1%. The “selectivity for AEP over Caspase-8” value (Caspase-8) was “over 40 fold”, the “A −>B Papp” value (Caco-2 monolayer) was “<LLOQ” and the “B −> A Papp” value (Caco-2 monolayer) was “<LLOQ”. For the same compound, the CYP3A-Testosterone inhibition (CYP3A; 3 μM) was 1.5%, the CYP3A-Testosterone inhibition (CYP3A; 10 μM) was −0.1% and the CYP2C19 inhibition (CYP2C19; 3 μM) was 31.6%. For the same compound, the CYP2C19 inhibition (CYP2C19; 10 μM) was 20.4%, the CYP1A2 inhibition (CYP1A2; 3 μM) was 73.7% and the CYP1A2 inhibition (CYP1A2; 10 μM) was 22.2%. The CYP2D6 inhibition (CYP2D6; 3 μM) was 34.6%, the CYP2D6 inhibition (CYP2D6; 10 μM) was 58.3% and the “APP cleavage after OGD” value [1] was “blocked”. The “selectivity for AEP over Caspase-3” value (Caspase-3) was “about 6 fold” and the IC50 (AEP) was 2370 nM.
